The structures appear in SMILES notation. Activity calls are given as the source filed them. No rule for the calls is given here.

Here are results for 10 compounds from PubChem BioAssay AID1259411 (Chemical Carcinogenesis Research Information System (CCRIS), 2018).

For the series, the system named is rodent carcinogenicity bioassays, tumor incidence. Description: CCRIS carcinogenicity studies. In a few lines:
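Archive of carcinogenicity, mutagenicity, tumor promotion and tumor inhibition results drawn from journals, NCI reports and other sources, expert-reviewed; covers 1985-2011 and is no longer updated.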

Regarding `OC[C@H]1O[C@@H]2O[C@H]3[C@H](O)[C@@H](O)[C@@H](O[C@H]4[C@H](O)[C@@H](O)[C@@H](O[C@H]5[C@H](O)[C@@H](O)[C@@H](O[C@H]6[C@H](O)[C@@H](O)[C@@H](O[C@H]7[C@H](O)[C@@H](O)[C@@H](O[C@H]8[C@H](O)[C@@H](O)[C@@H](O[C@H]1[C@H](O)[C@H]2O)O[C@@H]8CO)O[C@@H]7CO)O[C@@H]6CO)O[C@@H]5CO)O[C@@H]4CO)O[C@@H]3CO`, the carcinogen call runs as follows: (Species: MOUSE, Strain/Sex: CD-1/FEMALE, Route: ORAL, Dose: 0, 25, 75, 225, 675 MG/KG/D IN DIET FOR 105 WK (STUDY DURATION: 105 WK), Dose: 0, 25, 75, 225, 675 MG/KG/D IN DIET FOR 105 WK (STUDY DURATION: 105 WK)) “inactive; negative”; (Species: MOUSE, Strain/Sex: CD-1/MALE, Route: ORAL, Dose: 0, 25, 75, 225, 675 MG/KG/D IN DIET FOR 93 WK (STUDY DURATION: 93 WK), Dose: 0, 25, 75, 225, 675 MG/KG/D IN DIET FOR 93 WK (STUDY DURATION: 93 WK)) “inactive; negative”; (Species: RAT, Strain/Sex: F344/FEMALE, Route: ORAL, Dose: 0, 2.5, 5% IN DIET FOR 104 WK (STUDY DURATION: 109 WK), Dose: 0, 2.5, 5% IN DIET FOR 104 WK (STUDY DURATION: 109 WK)) “inactive; negative”; (Species: RAT, Strain/Sex: F344/FEMALE, Route: ORAL, Dose: 0, 25, 75, 225, 675 MG/KG/D IN DIET FOR 130 WK (STUDY DURATION: 130 WK), Dose: 0, 25, 75, 225, 675 MG/KG/D IN DIET FOR 130 WK (STUDY DURATION: 130 WK)) “inactive; negative”; (Species: RAT, Strain/Sex: F344/MALE, Route: ORAL, Dose: 0, 2.5, 5% IN DIET FOR 104 WK (STUDY DURATION: 109 WK), Dose: 0, 2.5, 5% IN DIET FOR 104 WK (STUDY DURATION: 109 WK)) “inactive; negative”; (Species: RAT, Strain/Sex: F344/MALE, Route: ORAL, Dose: 0, 25, 75, 225, 675 MG/KG/D IN DIET FOR 122 WK (STUDY DURATION: 122 WK), Dose: 0, 25, 75, 225, 675 MG/KG/D IN DIET FOR 122 WK (STUDY DURATION: 122 WK)) “inactive; negative”.

As to `CCC1(c2ccccc2)C(=O)NCNC1=O`, the carcinogen call reads like this: (Species: MOUSE, Strain/Sex: B6C3F1/FEMALE, Route: ORAL, Dose: 0, 300, 600, 1300 PPM IN DIET FOR 104 WK (STUDY DURATION: 104 WK), Dose: 0, 300, 600, 1300 PPM IN DIET FOR 104 WK (STUDY DURATION: 104 WK), Tumor Site: Type of Lesion: LIVER: HEPATOCELLULAR ADENOMA, HEPATOCELLULAR CARCINOMA, OR HEPATOBLASTOMA) “active; positive”; (Species: MOUSE, Strain/Sex: B6C3F1/MALE, Route: ORAL, Dose: 0, 300, 600, 1300 PPM IN DIET FOR 104 WK (STUDY DURATION: 104 WK), Dose: 0, 300, 600, 1300 PPM IN DIET FOR 104 WK (STUDY DURATION: 104 WK), Tumor Site: Type of Lesion: LIVER: HEPATOCELLULAR ADENOMA, HEPATOCELLULAR CARCINOMA, OR HEPATOBLASTOMA, THYROID GLAND: FOLLICULAR CELL ADENOMA) “active; positive”; (Species: RAT, Strain/Sex: F344/FEMALE, Route: ORAL, Dose: 0, 600, 1300, 2500 PPM IN DIET FOR 104 WK (STUDY DURATION: 104 WK), Dose: 0, 600, 1300, 2500 PPM IN DIET FOR 104 WK (STUDY DURATION: 104 WK)) “inactive; negative”; (Species: RAT, Strain/Sex: F344/MALE, Route: ORAL, Dose: 0, 600, 1300, 2500 PPM IN DIET FOR 104 WK (STUDY DURATION: 104 WK), Dose: 0, 600, 1300, 2500 PPM IN DIET FOR 104 WK (STUDY DURATION: 104 WK), Tumor Site: Type of Lesion: THYROID GLAND: FOLLICULAR CELL ADENOMA, FOLLICULAR CELL ADENOMA OR CARCINOMA, KIDNEY: RENAL TUBULE ADENOMA OR CARCINOMA) “equivocal”.

As for `C=CCN(CC=C)N=O`, the carcinogen call by setting is: (Species: RAT, Strain/Sex: BDIX/FEMALE, Route: ORAL, Dose: 0, 20, 40, 80 MG/KG IN DRINKING WATER FOR DURATION OF STUDY (STUDY DURATION: LIFE TIME), Dose: 0, 20, 40, 80 MG/KG IN DRINKING WATER FOR DURATION OF STUDY (STUDY DURATION: LIFE TIME), Tumor Site: Type of Lesion: NASAL/PARANASAL CAVITY: TUMORS) “active; positive”; (Species: RAT, Strain/Sex: BDIX/MALE, Route: ORAL, Dose: 0, 20, 40, 80 MG/KG IN DRINKING WATER FOR DURATION OF STUDY (STUDY DURATION: LIFE TIME), Dose: 0, 20, 40, 80 MG/KG IN DRINKING WATER FOR DURATION OF STUDY (STUDY DURATION: LIFE TIME), Tumor Site: Type of Lesion: NASAL/PARANASAL CAVITY: TUMORS) “active; positive”.

In the case of `IC(I)I`, the carcinogen call is, setting by setting: (Species: MOUSE, Strain/Sex: B6C3F1/FEMALE, Route: GAVAGE, Dose: 0, 47, 93 MG/KG, TWA, Dose: 0, 47, 93 MG/KG, TWA) “inactive; negative”; (Species: MOUSE, Strain/Sex: B6C3F1/MALE, Route: GAVAGE, Dose: 0, 47, 93 MG/KG, TWA, Dose: 0, 47, 93 MG/KG, TWA) “inactive; negative”; (Species: RAT, Strain/Sex: OSBORNE-MENDEL/FEMALE, Route: GAVAGE, Dose: 0, 27, 55 MG/KG, TWA, Dose: 0, 27, 55 MG/KG, TWA) “inactive; negative”; (Species: RAT, Strain/Sex: OSBORNE-MENDEL/MALE, Route: GAVAGE, Dose: 0, 71, 142 MG/KG, TWA, Dose: 0, 71, 142 MG/KG, TWA) “inactive; negative”.

As for `COC1=CC(=O)C[C@@H](C)[C@]12Oc1c(Cl)c(OC)cc(OC)c1C2=O`, the carcinogen call (Species: MOUSE, Strain/Sex: CD-1/MALE,FEMALE, Route: ORAL, Dose: 1% IN DIET FOR 12 TO 16 MO, Tumor Site: Type of Lesion: LIVER: HEPATOMA) is “active; positive” and the carcinogen call (Species: MOUSE, Strain/Sex: ICR/MALE, Route: SUBCUTANEOUS, Dose: 0.5, 0.5, 1.0 OR 1.0 MG SUSPENDED IN TRICAPRYLIN (3 MG/ANIMAL, TOTAL DOSE) ON DAYS 1, 7, 14 AND 21 OF AGE, Tumor Site: Type of Lesion: LIVER: HEPATOMA) was “active; positive”.

Consider `CC1CN(N=O)CC(C)N1C(=O)c1ccccc1` (configuration not stated), for which the carcinogen call (Species: RAT, Strain/Sex: F344/FEMALE, Route: ORAL, Dose: 0, 172 MG/L IN DRINKING WATER 5 D/WK FOR 50 WK, STUDY DURATION: 120-130 WK, Dose: 0, 172 MG/L IN DRINKING WATER 5 D/WK FOR 50 WK, STUDY DURATION: 120-130 WK, Tumor Site: Type of Lesion: FORESTOMACH: PAPILLOMA OR CARCINOMA) is “active; positive”.

Turning to `O=[N+]([O-])c1ccc(/C=C/c2cnc(N(CO)CO)nn2)o1`, the carcinogen call (Species: RAT, Strain/Sex: WISTAR/MALE, Route: ORAL, Dose: 0, 350, 1750, 3500 PPM IN POWDERED BASAL DIET (STUDY DURATION: 35 WK), Dose: 0, 350, 1750, 3500 PPM IN POWDERED BASAL DIET (STUDY DURATION: 35 WK), Tumor Site: Type of Lesion: FORESTOMACH, SQUAMOUS CELL PAPILLOMA, DUODENUM: ADENOCARCINOMA, SMALL INTESTINE: ADENOCARCINOMA, Tumor Site: Type of Lesion: FORESTOMACH, SQUAMOUS CELL PAPILLOMA, DUODENUM: ADENOCARCINOMA, SMALL INTESTINE: ADENOCARCINOMA) is “active; positive”.

With `ClCc1ccccn1`, the carcinogen call reads like this: (Species: MOUSE, Strain/Sex: B6C3F1/FEMALE, Route: GAVAGE, Dose: 0, 125, 250 MG/KG IN AQ SOLN, Dose: 0, 125, 250 MG/KG IN AQ SOLN) “inactive; negative”; (Species: MOUSE, Strain/Sex: B6C3F1/MALE, Route: GAVAGE, Dose: 0, 125, 250 MG/KG IN AQ SOLN, Dose: 0, 125, 250 MG/KG IN AQ SOLN) “inactive; negative”; (Species: RAT, Strain/Sex: F344/FEMALE, Route: GAVAGE, Dose: 0, 75, 150 MG/KG IN AQ SOLN, Dose: 0, 75, 150 MG/KG IN AQ SOLN) “inactive; negative”; (Species: RAT, Strain/Sex: F344/MALE, Route: GAVAGE, Dose: 0, 75, 150 MG/KG IN AQ SOLN, Dose: 0, 75, 150 MG/KG IN AQ SOLN) “inactive; negative”.

Turning to `CC1COCCN1N=O` (configuration not stated), the carcinogen call (Species: RAT, Strain/Sex: F344/FEMALE, Route: ORAL, Dose: 45 MG/L IN DRINKING WATER FOR 26 WK, Tumor Site: Type of Lesion: LIVER: HEPATOCELLULAR CARCINOMA, HEMANGIOENDOTHELIAL SARCOMA, ESOPHAGUS: PAPILLOMA, CARCINOMA) is “active; positive”.

As to `[P]#[Ga]`, the carcinogen call is, setting by setting: (Species: MOUSE, Strain/Sex: ICR/MALE, Route: INTRAPERITONEAL, Dose: 0, 48, 480 MG/KG AS GALLIUM SUSPENDED IN OLIVE OIL ONCE (STUDY DURATION: 18 MO), Dose: 0, 48, 480 MG/KG AS GALLIUM SUSPENDED IN OLIVE OIL ONCE (STUDY DURATION: 18 MO)) “inactive; negative”; (Species: MOUSE, Strain/Sex: ICR/MALE, Route: SUBCUTANEOUS, Dose: 0, 48, 480 MG/KG AS GALLIUM SUSPENDED IN OLIVE OIL ONCE (STUDY DURATION: 18 MO), Dose: 0, 48, 480 MG/KG AS GALLIUM SUSPENDED IN OLIVE OIL ONCE (STUDY DURATION: 18 MO)) “inactive; negative”.
